Test [1] deals with Carbonic anhydrase 5B, mitochondrial (Homo sapiens, UniProt Q9Y2D0).
For test [2], the target named is Carbonic anhydrase 5A, mitochondrial (Homo sapiens, UniProt P35218).
Chain of Carbonic anhydrase 5A, mitochondrial (P35218 whole entry): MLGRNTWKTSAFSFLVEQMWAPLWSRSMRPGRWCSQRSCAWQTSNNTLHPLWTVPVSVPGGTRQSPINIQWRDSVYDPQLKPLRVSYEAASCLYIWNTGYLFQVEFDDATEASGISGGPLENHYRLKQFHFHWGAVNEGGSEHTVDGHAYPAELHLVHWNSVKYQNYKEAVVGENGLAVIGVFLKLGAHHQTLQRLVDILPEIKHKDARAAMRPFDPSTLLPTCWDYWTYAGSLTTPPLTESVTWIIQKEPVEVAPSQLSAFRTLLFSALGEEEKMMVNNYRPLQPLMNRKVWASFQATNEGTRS

Chain of Carbonic anhydrase 5B, mitochondrial (Q9Y2D0 whole entry): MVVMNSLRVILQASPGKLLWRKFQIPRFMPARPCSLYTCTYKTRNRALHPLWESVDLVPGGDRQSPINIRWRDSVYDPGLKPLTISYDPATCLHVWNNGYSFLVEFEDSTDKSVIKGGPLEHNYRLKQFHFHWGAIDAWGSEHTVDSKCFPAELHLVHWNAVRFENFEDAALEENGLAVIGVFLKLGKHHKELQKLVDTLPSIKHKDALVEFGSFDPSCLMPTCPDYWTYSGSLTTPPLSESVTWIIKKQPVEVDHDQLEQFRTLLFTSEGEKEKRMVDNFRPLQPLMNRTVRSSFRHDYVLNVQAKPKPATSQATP

As for `NS(=O)(=O)c1ccc(NC(=O)Cc2ccccc2)cc1`, the values for the Ki in test [1] and in test [2] were 10 nM and 13 nM, respectively.

For the compound `NS(=O)(=O)c1ccc(Nc2nc(Cl)nc(NCCO)n2)cc1`, the Ki in test [1] was 340 nM; in test [2], 451 nM.

The values above are taken from ChEMBL document CHEMBL2439959, “Structural study of the location of the phenyl tail of benzene sulfonamides and the effect on human carbonic anhydrase inhibition” (Bioorg Med Chem, 2013).
